The values below are quoted from earlier work in patent US20230190793A1, “Pharmaceutical Preparation for Use in the Treatment of Systemic Inflammatory Response Syndrome (SIRS)” (priority 2020, published 2023).

As for `OCl` [hypochlorous acid], the “Acid dissociation constant as pKa at 298 K” value (“Acid dissociation constant” for short) is listed as 7.25. On to peroxochloric acid, for which the “Acid dissociation constant” value is “approx. 6.2”. Regarding `[O-][Cl+2]([O-])O` [chloric acid], the “Acid dissociation constant” value is on record as 0.
